Test results as given in patent publication US8685974B2 (Bayer CropScience AG, priority 2009, dated 2014).
Marks after values point to notes of the source that are not given here.

details: pH 2.3

Molecule | log p | logP value of the minor isomer (in parenthesis in column Isomer ratio [d])
NNc1nccc(-c2c[nH]nc2-c2ccc(Cl)s2)n1 [Example 78] | 2.26^[a] | –
CC(C)Cn1cc(-c2ccnc(Cl)c2)c(-c2ccc(Cl)s2)n1 [Example 70] | 4.85^[a] | –
CCC(C)n1ncc(-c2ccnc(SC)n2)c1-c1ccc(Cl)s1 (centres unmarked) [Example 209] | 4.76^[a] | –
Clc1ccc(-c2n[nH]cc2-c2ccnc(NCc3ccccc3)n2)s1 [Example 90] | 2.37^[a] | –
COCC(C)Nc1nccc(-c2cn(C(C)C)nc2-c2ccc(Cl)s2)n1 (centres unmarked) [Example 178] | 2.82^[a] | –
CC(C)Cn1cc(-c2ccnc(NCc3ccccc3)n2)c(-c2ccc(Cl)s2)n1 [Example 93] | 4.31^[a] | –
CSc1nccc(-c2cn(C(C)C)nc2-c2ccc(Cl)s2)n1 [Example 222] | 4.44^[a] | –
CCC(C)n1cc(-c2ccnc(NC(C)C)n2)c(-c2ccc(Cl)s2)n1 (centres unmarked) [Example 189] | 3.25^[a] | –
C#CCNc1cc(-c2cn(CC(C)C)nc2-c2ccc(Cl)s2)cc[n+]1[O-] [Example 84] | 2.92^[a] | –
CCC(CC)n1ncc(-c2ccncc2)c1-c1ccc(Cl)s1 [Example 41] | 2.08^[a] | –
CC(C)Cn1cc(-c2cc[n+]([O-])c(Cl)c2)c(-c2ccc(Cl)s2)n1 [Example 74] | 3.04^[a] | (2.82)
CC(CN(C)C)Cn1cc(-c2ccnc(Cl)c2)c(-c2ccc(Cl)s2)n1 (centres unmarked) [Example 91] | 1.84^[a] | (1.74)

same assay, conditions: pH 2.7

Molecule | logP (pH2.7) | log p | logP value of the minor isomer | logP value of the minor isomer (in parenthesis in column Isomer ratio [d]) | logP value of the minor isomer (between parenthesis, Isomer ratio column) | logP (pH2.7), minor isomer
CC(C)Cn1ncc(-c2cc[n+]([O-])c(N)c2)c1-c1ccc(Cl)s1 [2-Amino-4-[1-isobutyl-5-(5-chloro-2-thienyl)-1H-pyrazol-4-yl]pyridine N oxide] | 2.21 | – | – | – | – | –
CCn1cc(-c2ccnc(NC(=O)OC(C)C)c2)c(-c2ccc(Cl)s2)n1 [Example 268] | – | 3.35^[b] | – | – | – | –
C#CCn1cc(-c2ccncc2)c(-c2sccc2Cl)n1 [Example 131] | – | 1.11^[b] | (1.10) | – | – | –
COCCn1cc(-c2ccncc2)c(-c2ccc(Cl)s2)n1 [Example 49] | – | 1.42^[b] | – | (1.29) | – | –
CCOC(=O)n1cc(-c2ccncc2)c(-c2ccc(Cl)s2)n1 [Example 87] | – | 1.97^[b] | – | – | – | –
CC(n1ncc(-c2ccncc2)c1-c1ccc(Cl)s1)C(C)(C)C (centres unmarked) [Example 19] | – | 2.47^[b] | – | – | – | –
CC(C)=CCn1cc(-c2ccncc2)c(-c2cc3ccsc3s2)n1 [Example 331] | – | 1.69^[b] | – | – | – | –
CC(C)(C)Cn1ncc(-c2ccncc2)c1-c1ccc(Cl)s1 [Example 25] | – | 2.17^[b] | – | – | – | –
CC(C)n1cc(-c2ccncc2)c(-c2sccc2Cl)n1 [Example 158] | – | 1.38^[b] | – | – | – | –
CC(C)n1ncc(-c2ccncc2)c1-c1ccc(I)s1 [Example 215] | – | 1.78^[b] | – | – | – | –
C=CCn1cc(-c2ccncc2)c(-c2ccc(Br)s2)n1 [Example 383] | – | 1.82^[b] | (1.73) | – | – | –
FC(F)(F)Cn1cc(-c2ccncc2)c(-c2sccc2Cl)n1 [Example 138] | – | 1.39^[b] | – | – | – | –
CCn1cc(-c2ccncc2)c(-c2sccc2Cl)n1 [Example 163] | – | 1.14^[b] | – | – | – | –
CC(C)n1cc(-c2ccncc2)c(-c2cc(Cl)cs2)n1 [Example 114] | – | 1.6^[b] | – | (1.74) | – | –
Clc1ccc(-c2c(-c3ccncc3)cnn2-c2ccccc2)s1 [Example 23] | – | 1.88^[b] | – | – | – | –
Clc1ccsc1-c1nn(CCc2ccccc2)cc1-c1ccncc1 [Example 128] | – | 1.88^[b] | (1.84) | – | – | –
CC(C)Nc1nccc(-c2cn(CCCl)nc2-c2ccc(Cl)s2)n1 [Example 119] | – | 2.63^[b] | – | (2.35) | – | –
CCC(CC)n1cc(-c2ccnc(NC(C)C)n2)c(-c2ccc(Cl)s2)n1 [Example 116] | – | 3.57^[b] | – | (3.37) | – | –
CC(C)=CCn1cc(-c2ccncc2)c(-c2ccc(Br)s2)n1 [Example 355] | – | 2.35^[b] | – | – | (2.11) | –
CC(C)Cn1ncc(-c2cc[n+]([O-])c(NCc3ccccc3)c2)c1-c1ccc(Cl)s1 [2-Benzylamino-4-[1-isobutyl-5-(5-chloro-2-thienyl)-1H-pyrazol-4-yl]pyridine N oxide] | 3.48 | – | – | – | – | –

Molecule | logP (pH2.7) | log p | logP value of the minor isomer | logP value of the minor isomer (in parenthesis in column Isomer ratio [d]) | logP value of the minor isomer (between parenthesis, Isomer ratio column) | logP (pH2.7), minor isomer
CCC(C)n1ncc(-c2ccncc2)c1-c1ccc(Cl)s1 (centres unmarked) [Example 9] | – | 1.91^[b] | – | – | – | –
Clc1sc(-c2n[nH]cc2-c2ccncc2)c(Cl)c1Cl [Example 2] | – | 1.52^[b] | – | – | – | –
C#CCNc1cc(-c2cnn(CC(C)C)c2-c2ccc(Cl)s2)cc[n+]1[O-] [2-Propargylamino-4-[1-isobutyl-5-(5-chloro-2-thienyl)-1H-pyrazol-4-yl]pyridine-N-oxyde] | 2.92 | – | – | – | – | –
CC(=O)N(C(C)=O)c1cc(-c2cn(C)nc2-c2ccc(N(C(C)=O)C(C)=O)s2)ccn1 [Example 289] | – | 1.84^[b] | – | – | – | –
CCn1cc(-c2ccnc(NC(=O)c3ccccc3)c2)c(-c2ccc(Cl)s2)n1 [Example 266] | – | 3.55^[b] | – | – | – | –
CC(C)Nc1nccc(-c2cn(Cc3ccccc3F)nc2-c2ccc(Cl)s2)n1 [Example 121] | – | 3.39^[b] | – | (3.02 | – | –
Clc1ccsc1-c1nn(C2CCCC2)cc1-c1ccncc1 [Example 160] | – | 1.76^[b] | – | – | – | –
COc1ccc(Cn2nc(-c3ccc(Cl)s3)c(-c3ccncc3)c2SC)cc1 [Example 103] | – | 3.78^[b] | – | – | – | –
N#CCCn1cc(-c2ccncc2)c(-c2cc(Cl)cs2)n1 [Example 126] | – | 1.16^[b] | – | – | – | –
COCn1cc(-c2ccncc2)c(-c2sccc2Cl)n1 [Example 129] | – | 0.95^[b] | – | – | – | –
Cn1cc(-c2ccncc2)c(-c2sccc2Cl)n1 [Example 142] | – | 0.78^[b] | (0.88) | – | – | –
CC(C)Cn1cc(-c2cc[n+]([O-])c(N)c2)c(-c2ccc(Cl)s2)n1 [2-Amino-4-[1-isobutyl-3-(5-chloro-2-thienyl)-1H-pyrazol-4-yl]pyridine N oxide] | 2.39 | – | – | – | – | –
COCn1cc(-c2ccnc(NC(C)C)n2)c(-c2ccc(Cl)s2)n1 [Example 115] | – | 2.39^[b] | – | (2.39) | – | –
N#Cc1[nH]nc(-c2ccc(Cl)s2)c1-c1ccncc1 [Example 85] | – | 1.53^[b] | – | – | – | –
C=CCn1cc(-c2ccnc(NC(C)C)n2)c(-c2ccc(Cl)s2)n1 [Example 155] | – | 2.68^[b] | – | – | – | –
C#CCn1cc(-c2ccnc(NC(C)C)n2)c(-c2ccc(Cl)s2)n1 [Example 117] | – | 2.52^[b] | – | (3.13) | – | –
CSc1ccc(-c2c(-c3ccncc3)cnn2C(C)C)s1 [Example 295] | – | 1.78^[b] | – | – | – | –
CCOCCn1cc(-c2ccnc(NC(C)C)n2)c(-c2ccc(Cl)s2)n1 [Example 120] | – | 2.56^[b] | – | (2.33) | – | –
CC(C)Nc1nccc(-c2cn(CC#N)nc2-c2ccc(Cl)s2)n1 [Example 122] | – | 2.4^[b] | – | – | – | –
Clc1ccc(-c2n[nH]c(C3CC3)c2-c2ccncc2)s1 [Example 67] | – | 1.36^[b] | – | – | – | –

Molecule | logP (pH2.7) | log p | logP value of the minor isomer | logP value of the minor isomer (in parenthesis in column Isomer ratio [d]) | logP value of the minor isomer (between parenthesis, Isomer ratio column) | logP (pH2.7), minor isomer
FC(F)Cn1cc(-c2ccncc2)c(-c2cc(Cl)cs2)n1 [Example 157] | – | 1.42^[b] | – | – | – | –
CC(C)=CCn1cc(-c2ccncc2)c(-c2sccc2Cl)n1 [Example 133] | – | 1.74^[b] | – | – | – | –
CC(C)Cn1cc(-c2cc[n+]([O-])c(NCc3ccccc3)c2)c(-c2ccc(Cl)s2)n1 [2-Benzylamino-4-[1-isobutyl-3-(5-chloro-2-thienyl)-1H-pyrazol-4-yl]pyridine N oxide] | 3.65 | – | – | – | – | –
CCC(C)n1nc(-c2ccc(Cl)s2)c(-c2ccncc2)c1Br (centres unmarked) [4-[5-Bromo-1-secbutyl-(3/5)-(5-chloro-2-thienyl)-1H-pyrazol-4-yl]pyridine] | 3.69 | – | – | – | – | –
CCC(C)n1cc(-c2ccnc(NC(=O)c3ccccc3)c2)c(-c2ccc(Cl)s2)n1 (centres unmarked) [Example 237] | – | 4.46^[b] | – | – | – | –
Cn1cc(-c2ccnc(NC(=O)C(C)(C)C)c2)c(-c2ccc(Cl)s2)n1 [Example 283] | – | 2.92^[b] | – | – | – | –
CC#Cc1c(-c2ccncc2)c(-c2ccc(Cl)s2)nn1Cc1ccc(OC)cc1 [4-[(3/5)-(5-chloro-2-thienyl)-1-(4-methoxybenzyl)-5-(prop-1-yn-1-yl)-1H-pyrazol-4-yl]pyridine] | 3.11 | – | – | – | – | 2.61
CCC(C)n1cc(-c2ccnc(C#CC3CC3)c2)c(-c2ccc(Cl)s2)n1 (centres unmarked) [Example 111] | – | 4.56^[b] | – | – | – | –
FC(F)Cn1cc(-c2ccncc2)c(-c2sccc2Cl)n1 [Example 127] | – | 1.14^[b] | (1.17) | – | – | –
C=CCn1cc(-c2ccncc2)c(-c2ccc(Cl)s2)n1 [Example 48] | – | 1.65^[b] | – | (1.50) | – | –
CN(C)S(=O)(=O)Nc1cc(-c2cn(C)nc2-c2ccc(Cl)s2)ccn1 [Example 220] | – | 2.23^[b] | – | – | – | –
CCC(C)n1cc(-c2cc[n+]([O-])cc2)c(-c2ccc(Cl)s2)n1 (centres unmarked) [4-[1-sec-butyl-3-(5-chloro-2-thienyl)-1H-pyrazol-4-yl]pyridine N oxide] | 2.5 | – | – | – | – | –
CC(C)CC(C)n1ncc(-c2ccncn2)c1-c1ccc(Cl)s1 (centres unmarked) [Example 28] | – | 4.29^[b] | – | – | – | –
Fc1ccc(-c2nn(CC=C(Cl)Cl)cc2-c2ccncc2)s1 [Example 346] | – | 1.43^[b] | – | – | – | –
CC(C)CCn1cc(-c2ccncn2)c(-c2ccc(Cl)s2)n1 [Example 27] | – | 3.8^[b] | – | – | – | –
CC(C)Nc1nccc(-c2cn(CCC#N)nc2-c2ccc(Cl)s2)n1 [Example 140] | – | 2.15^[b] | – | – | – | –
4-[3-(5-Chloro-2-thienyl)-1-isobutyl-1H-pyrazol-4-yl]-N-propylpyridin-2-amine 1-oxide | 1.90 | – | – | – | – | –
CC(C)n1cc(-c2ccncc2)c(-c2cccs2)n1 [4-[1-Isopropyl-(3/5)-(2-thienyl)-1H-pyrazol-4-yl]pyridine] | 1.27 | – | – | – | – | 1.33
C=CC(C)n1cc(-c2ccnc(NC(C)C)n2)c(-c2ccc(Cl)s2)n1 (centres unmarked) [Example 123] | – | 3.02^[b] | – | (2.73) | – | –

same assay, conditions: pH 7.8

Molecule | log p
[O-][n+]1ccc(-c2c[nH]nc2-c2ccc(Cl)s2)cc1Cl [Example 59] | 1.57^[c]
